Measurements reported in patent publication US8455484B2, “Selected inhibitors of protein tyrosine kinase activity” (MethylGene Inc., priority 2010, dated 2013).

Tests used:
VEGFR2 (KDR) = biological target: T1, VEGFR2 (KDR) (Homo sapiens, UniProt P35968); experiment: In vitro receptor tyrosine kinase assay (VEGF receptor KDR), DELFIA; format: biochemical; conditions: recombinant GST-VEGFR2 catalytic domain, ATP 0.6 uM, enzyme 5 nM; read-out: VEGFR IC50
T1 construct: made in house; host or cells: Sf9 cells (Spodoptera frugiperda), baculovirus
From the text: This test measures the ability of compounds to inhibit the enzymatic activity of recombinant human VEGF receptor enzymatic activity.
A 1.6-kb cDNA corresponding to the catalytic domain of VEGFR2 (KDR) (Genbank accession number AF035121 amino acid 806 to 1356) is cloned into the Pst I site of the pDEST20 Gateway vector (Invitrogen) for the production of a GST-tagged version of that enzyme. This constuct is used to generate recombinant baculovirus using the Bac-to-Bac™ system according to the manucfacturer's instructions (Invitrogen).
The GST-VEGFR2806-1356 protein is expressed in Sf9 cells (Spodoptera frugiperda) upon infection with recombinant baculovirus construct. Briefly, Sf9 cells grown in suspension and maintained in serum-free medium (Sf900 II supplemented with gentamycin) at a cell density of about 2×10^6 cells/ml are infected with the above-mentioned viruses at a multiplicity of infection (MOI) of 0.1 during 72 hours at 27° C. with agitation at 120 rpm on a rotary shaker. Infected cells are harvested by centrifugation at 398 g for 15 min. Cell pellets are frozen at −80° C. until purification is performed.
All steps described in cell extraction and purification are performed at 4° C. Frozen Sf9 cell pellets infected with the GST-VEGFR2806-1356 recombinant baculovirus are thawed and gently resuspended in Buffer A (PBS pH 7.3 supplemented with 1 μg/ml pepstatin, 2 μg/ml Aprotinin and leupeptin, 50 μg/ml PMSF, 50 μg/ml TLCK and 10 μM E64 and 0.5 mM DTT) using 3 ml of buffer per gram of cells. Suspension is Dounce homogenized and 1% Triton X-100 is added to the homogenate after which it is centrifuged at 22500 g, 30 min., 4° C. The supernatant (cell extract) is used as starting material for purification of GST-VEGFR2806-1356.
The supernatant is loaded onto a GST-agarose column (Sigma) equilibrated with PBS pH 7.3. Following a four column volume (CV) wash with PBS pH 7.3+1% Triton X-100 and 4 CV wash with buffer B (50 mM Tris pH 8.0, 20% glycerol and 100 mM NaCl), bound proteins are step eluted with 5 CV of buffer B supplemented with 5 mM DTT and 15 mM glutathion. GST-VEGFR2806-1356 enriched fractions from this chromatography step are pooled based on U.V. trace i.e. fractions with high O.D.280. Final GST-VEGFR2806-1356 protein preparations concentrations are about 0.7 mg/ml with purity approximating 70%. Purified GST-VEGFR2806-1356 protein stocks are aliquoted and frozen at −80° C. prior to use in enzymatic assay.
Inhibition of VEGFR/KDR is measured in a DELFIA™ assay (Perkin Elmer). The substrate poly(Glu4, Tyr) is immobilized onto black high-binding polystyrene 96-well plates. The coated plates are washed and stored at 4° C. During the assay, the enzyme is pre-incubated with inhibitor and Mg-ATP on ice in polypropylene 96-well plates for 4 minutes, and then transferred to the coated plates. The subsequent kinase reaction takes place at 30° C. for 10-30 minutes. ATP concentrations in the assay are 0.6 uM for VEGFR/KDR (2× the Km). Enzyme concentration is 5 nM. After incubation, the kinase reactions are quenched with EDTA and the plates are washed. Phosphorylated product is detected by incubation with Europium-labeled anti-phosphotyrosine MoAb. After washing the plates, bound MoAb is detected by time-resolved fluorescence in a Gemini SpectraMax reader (Molecular Devices). Compounds are evaluated over a range of concentrations, and IC50 values (concentration of compounds giving 50% inhibition of enzymatic activity) are determined.

CNV progression = experiment: In vivo choroidal neovascularization (CNV) model; design: species or system Brown-Norway rats; conditions: injection into right eye on Day 3, CNV area on Day 10, vs vehicle-treated group
From the text: This test measures the capacity of compounds to inhibit CNV progression. CNV is the main cause of severe vision loss in patients suffering from age-related macular degeneration (AMD).
Male Brown-Norway rats (Japan Clea Co., Ltd.) were used in these studies.
Rats were anesthetized by intraperitoneal injection of pentobarbital, and the right pupil was dilated with 0.5% tropicamide and 0.5% phenylephrine hydrochloride. The right eye received 6 laser burns between retinal vessels using a slit lamp delivery system of Green laser Photocoagulator (Nidex Inc., Japan), and microscope slide glass with Heaton™ (AMO Inc) used as a contact lens. The laser power was 100 or 200 mW for 0.1 second and spot diameter was 100 μm. At the time of laser burn, bubble production was observed, which is an indication of rupture of Bruch's membrane which is important for CNV generation.
Rats were divided into the groups based on their body weight using SAS software (SAS institute Japan, R8.1) after laser irradiation (Day 0). After animals were anesthetized, and the right pupil dilated (as above mentioned), the right eye of the animal received the compound or vehicle by an injection (10 μL/eye) at doses of 10 or 3 nmol/eye on Day 3. The compounds were dissolved or suspended in CBS, PBS, or other adequate vehicles before injection.
On Day 10, the animals were anesthetized with ether, and high molecular weight fluorescein isothiocyanate (FITC)-dextran (SIGMA, 2×10^6 MW) was injected via a tail vein (20 mg/rat). About 30 min after FITC-dextran injection, animals were euthanized by ether or carbon dioxide, and the eyes were removed and fixed with 10% formaline neutral buffer solution. After over 1 hour of fixation, RPE-choroid-sclera flat mounts were obtained by removing cornea, lens and retina from the eyeballs. The flat mounts were mounted in 50% glycerol on a microscope slide, and the portion burned by laser was photographed using a fluorescence microscope (Nikon Corporation, excitation filter:465-495 nm, absorption filter:515-555 nm). The CNV area was obtained by measurement of hyper-fluorescence area observed on the photograph using Scion image.
The average CNV area of 6 burns was used as an individual value of CNV area, and the average CNV area of compound treated group was compared with that of the vehicle-treated group.

[1] = system: VEGF-induced retinal vascular permeability; experiment: VEGF-induced retinal vascular permeability in rabbits; format: in vivo, Dutch rabbits; conditions: intravitreal injection, human VEGF165 500 ng, 30 min after fluorescein injection, vs vehicle-treated group
Method: This test measured the capacity of compounds to inhibit VEGF-induced retinal vascular permeability. Vascular permeability is the cause of severe vision loss in patients suffering from age-related macular degeneration (AMD). Female Dutch rabbits (˜2 kg; Kitayama LABES CO., LTD, Nagano, Japan) were anesthetized with pentobarbital and topically with 0.4% oxybuprocaine hydrochloride. Test articles or vehicle were injected into vitreous cavity after the dilation of the pupils with 0.5% tropicamide eye drop. Recombinant human VEGF165 (500 ng; Sigma-Aldrich Co., St Louis, Mo.) was injected intravitreously 48 hr prior to the measurement of vitreous fluorescein concentration. Rabbits were anesthetized with pentobarbital and sequentially injected sodium fluorescein (2 mg/kg) via the ear vein. Pupils were dilated with 0.5% tropicamide eye drop, and ocular fluorescein levels were measured using the FM-2 Fluorotron Master (Ocumetrics, Mountain View, Calif.) 30 min after fluorescein injection. The fluorescein concentrations in vitreous were obtained at data points that are 0.25 mm apart from posterior-end along an optical axis. Vitreous fluorescence concentration was considered fluorescein leakage from retinal vasculature. The average fluorescence peaks of the test article treated groups were compared with that of the vehicle-treated group.

T1 sequence (P35968 806-1356): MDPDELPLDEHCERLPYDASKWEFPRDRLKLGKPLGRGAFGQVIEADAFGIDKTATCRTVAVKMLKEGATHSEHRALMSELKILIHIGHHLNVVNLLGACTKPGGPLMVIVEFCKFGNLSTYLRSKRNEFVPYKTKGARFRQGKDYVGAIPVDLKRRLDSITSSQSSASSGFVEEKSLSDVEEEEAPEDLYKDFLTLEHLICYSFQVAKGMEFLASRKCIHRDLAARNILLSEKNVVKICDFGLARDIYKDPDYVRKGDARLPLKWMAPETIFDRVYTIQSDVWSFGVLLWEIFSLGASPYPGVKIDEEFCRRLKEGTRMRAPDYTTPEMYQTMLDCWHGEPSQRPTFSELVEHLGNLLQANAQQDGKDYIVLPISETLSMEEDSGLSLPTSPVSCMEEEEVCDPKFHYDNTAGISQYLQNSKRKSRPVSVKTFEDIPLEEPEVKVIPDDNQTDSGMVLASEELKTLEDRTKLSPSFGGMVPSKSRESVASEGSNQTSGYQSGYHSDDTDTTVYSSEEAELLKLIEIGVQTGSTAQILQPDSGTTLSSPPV

Question: With “1-((2-(7-(4-Isopropylaminocarbonylamino-2-fluorophenoxy)thieno[3,2-b]pyrid methyl-1H-imidazol-5-yl)methyl)-3-isopropyl-1-(2-methoxyethyl)urea [Compound 192]” as the compound, how does the IC50 (VEGFR2 (KDR)) read?
Answer: 50 to 100 nM

Question: What about the “Inhibition of CNV progression” value (CNV progression; 3 nmol/eye) of the same compound?
Answer: B (≧40% to <60% inhibition)

Question: With `CS(=O)(=O)CCNCc1ccc(-c2cc3nccc(Oc4ccc(NC(=O)NC5CC5)cc4F)c3s2)nc1` [Compound 100, 1-cyclopropyl-3-(3-fluoro-4-(2-(5-((2-(methylsulfonyl)ethylamino)methyl)pyridin-2-yl)thieno[3,2-b]pyridin-7-yloxy)phenyl)urea] as the compound, how does the IC50 (VEGFR2 (KDR)) read?
Answer: < 50 nM

Question: For `COCCN(Cc1ccc(-c2cc3nccc(Oc4ccc(NC(=O)NC5CC5)c(F)c4F)c3s2)nc1)C(C)=O` [Compound 26, N-((6-(7-(4-(3-cyclopropylureido)-2,3-difluorophenoxy)thieno[3,2-b]pyridin-2-yl)-pyridin-3-yl)methyl)-N-(2-methoxyethyl)acetamide], which IC50 (VEGFR2 (KDR)) is on record?
Answer: < 50 nM

Question: What about the “Inhibition of CNV progression” value (CNV progression; 3 nmol/eye) of the same compound?
Answer: B (≧40% to <60% inhibition)

Question: And the “Inhibition of CNV progression” value (CNV progression; 10 nmol/eye)?
Answer: A (greater than or equal to 60% inhibition)

Question: What about the “inhibition of the leakage of fluorescein (vitreous fluorescein concentration)” value [1] of the same compound?
Answer: significant inhibition

Question: With `COCCN(C=O)Cc1ccc(-c2cc3nccc(Oc4ccc(NC(=O)NC5CC5)cc4F)c3s2)nc1` [Compound 6, N-((6-(7-(4-(3-cyclopropylureido)-2-fluorophenoxy)thieno[3,2-b]pyridin-2-yl)pyridin-3-yl)methyl)-N-(2-methoxyethyl)formamide] as the compound, how does the IC50 (VEGFR2 (KDR)) read?
Answer: < 50 nM

Question: And the “Inhibition of CNV progression” value (CNV progression; 3 nmol/eye)?
Answer: B (≧40% to <60% inhibition)

Question: What about the “Inhibition of CNV progression” value (CNV progression; 10 nmol/eye) of the same compound?
Answer: A (greater than or equal to 60% inhibition)

Question: What does the source list for `CCNC(=O)N(CCOC)Cc1ccc(-c2cc3nccc(Oc4ccc(NC(=O)NC5CC5)cc4F)c3s2)nc1` [Compound 2, N-[3-((6-(7-(4-(3-cyclopropylureido)-2-fluorophenoxy)thieno[3,2-b]pyridin-2-yl)pyridin-3-yl)methyl)]-N-(1-ethyl)-N-[3-(2-methoxyethyl)]urea]?
Answer: IC50 (VEGFR2 (KDR)): < 50 nM; Inhibition of CNV progression (CNV progression; 3 nmol/eye): B (≧40% to <60% inhibition); Inhibition of CNV progression (CNV progression; 10 nmol/eye): A (greater than or equal to 60% inhibition)

Question: With `O=C(Nc1ccc(Oc2ccnc3cc(-c4ccc(CN5CCN(C(=O)CO)CC5)cn4)sc23)c(F)c1)NC1CC1` [Compound 74, 1-cyclopropyl-3-(3-fluoro-4-(2-(5-((4-(2-hydroxyacetyl)piperazin-1-yl)methyl)pyridin-2-yl)thieno[3,2-b]pyridin-7-yloxy)phenyl)urea] as the compound, how does the IC50 (VEGFR2 (KDR)) read?
Answer: < 50 nM

Question: And the “Inhibition of CNV progression” value (CNV progression; 3 nmol/eye)?
Answer: A (greater than or equal to 60% inhibition)

Question: What about the “Inhibition of CNV progression” value (CNV progression; 10 nmol/eye) of the same compound?
Answer: A (greater than or equal to 60% inhibition)

Question: What about the “inhibition of the leakage of fluorescein (vitreous fluorescein concentration)” value [1] of the same compound?
Answer: significant inhibition

Question: With `CC(C)[C@H](N)C(=O)OCC(=O)N1CCN(Cc2ccc(-c3cc4nccc(Oc5ccc(NC(=O)NC6CC6)cc5F)c4s3)nc2)CC1` [Compound 80, (S)-2-(4-((6-(7-(4-(3-cyclopropylureido)-2-fluorophenoxy)thieno[3,2-b]pyridin-2-yl)pyridin-3-yl)methyl)piperazin-1-yl)-2-oxoethyl 2-amino-3-methylbutanoate] as the compound, how does the IC50 (VEGFR2 (KDR)) read?
Answer: < 50 nM

Question: For `COCCN(Cc1cnc(-c2cc3nccc(Oc4ccc(NC(=O)NC5CC5)cc4F)c3s2)n1C)C(=O)CO` [Compound 209, N-((2-(7-(4-(3-cyclopropylureido)-2-fluorophenoxy)thieno[3,2-b]pyridin-2-yl)-1-methyl-1H-imidazol-5-yl)methyl)-2-hydroxy-N-(2-methoxyethyl)acetamide], which IC50 (VEGFR2 (KDR)) is on record?
Answer: < 50 nM

Question: How did the IC50 (VEGFR2 (KDR)) turn out when `CN(CCO)CCn1cc(-c2cc3nccc(Oc4ccc(NC(=O)NC5CC5)cc4F)c3s2)cn1` [Compound 151, 1-cyclopropyl-3-(3-fluoro-4-(2-(1-(2-((2-hydroxyethyl)(methyl)amino)ethyl)-1H-pyrazol-4-yl)thieno[3,2-b]pyridin-7-yloxy)phenyl)urea] was run?
Answer: < 50 nM

Question: How did the IC50 (VEGFR2 (KDR)) turn out when `O=C(Nc1ccc(Oc2ccnc3cc(-c4cn(CCN5CCOCC5)cn4)sc23)c(F)c1)NC1CC1` [Compound 265] was run?
Answer: < 50 nM

Question: Which results are given for `CN1CCN(C2CCN(C(=O)c3ccc(-c4cc5nccc(Oc6ccc(NC(=O)NC7CC7)cc6F)c5s4)nc3)CC2)CC1` [Compound 234, 1-Cyclopropyl-3-(3-fluoro-4-(2-(5-(4-(4-methylpiperazin-1-yl)piperidine-1-carbonyl)pyridin-2-yl)thieno[3,2-b]pyridin-7-yloxy)phenyl)urea]?
Answer: IC50 (VEGFR2 (KDR)): < 50 nM; Inhibition of CNV progression (CNV progression; 3 nmol/eye): B (≧40% to <60% inhibition)
